Reference: the supplement of paper PMC10307832

Assays:
Experiment in all cases: relative viability (nuclei count vs DMSO), 5 days (fraction); higher = more cells survive
Salubrinal + Bortezomib = compound: O=C(/C=C/c1ccccc1)NC(NC(=S)Nc1cccc2cccnc12)C(Cl)(Cl)Cl [Salubrinal] + CC(C)C[C@H](NC(=O)[C@H](Cc1ccccc1)NC(=O)c1cnccn1)B(O)O [Bortezomib] (partner 0.002 µM)
In short: (§1)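 Lung cancer cell lines in 1536-well plates were dosed by pin tool the day after seeding, either with one drug alone or with a fixed anchor-drug dose plus five library-drug doses (not always all listed) in √10 steps. After 5 days, cells were fixed and their nuclei stained in one step (final 0.05% Triton X-100, 1% formaldehyde, 1 ug/ml Hoechst), then counted on 4× images. Relative viability is the nuclei count in treated wells divided by that in vehicle wells. Values are medians of duplicate plates.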

Salubrinal + Palbociclib = compound: O=C(/C=C/c1ccccc1)NC(NC(=S)Nc1cccc2cccnc12)C(Cl)(Cl)Cl [Salubrinal] + CC(=O)c1c(C)c2cnc(Nc3ccc(N4CCNCC4)cn3)nc2n(C2CCCC2)c1=O [Palbociclib] (partner 0.5 µM)
In short: as §1

Salubrinal + AZD7762 = compound: O=C(/C=C/c1ccccc1)NC(NC(=S)Nc1cccc2cccnc12)C(Cl)(Cl)Cl [Salubrinal] + NC(=O)Nc1cc(-c2cccc(F)c2)sc1C(=O)N[C@H]1CCCNC1 [AZD7762] (partner 0.2 µM)
In short: as §1

[1] = compound: Cc1ccc2nc(NCCN)c3ncc(C)n3c2c1 + Cc1nc(NC(=O)N2CCC[C@H]2C(N)=O)sc1-c1ccnc(C(C)(C)C(F)(F)F)c1 [Alpelisib] (partner 2 µM)
In short: as §1

Row | Cell Line | relative viability (Salubrinal + Bortezomib; first compound 0.08 µM) | relative viability (Salubrinal + Bortezomib; first compound 0.253 µM) | relative viability (Salubrinal + Bortezomib; first compound 0.8 µM) | relative viability (Salubrinal + Bortezomib; first compound 2.53 µM) | relative viability (Salubrinal + Bortezomib; first compound 8 µM) | relative viability (Salubrinal + Palbociclib; first compound 0.08 µM) | relative viability (Salubrinal + Palbociclib; first compound 0.253 µM) | relative viability (Salubrinal + Palbociclib; first compound 0.8 µM) | relative viability (Salubrinal + Palbociclib; first compound 2.53 µM) | relative viability (Salubrinal + Palbociclib; first compound 8 µM) | relative viability (Salubrinal + AZD7762; first compound 0.08 µM) | relative viability (Salubrinal + AZD7762; first compound 0.253 µM) | relative viability (Salubrinal + AZD7762; first compound 0.8 µM) | relative viability (Salubrinal + AZD7762; first compound 2.53 µM) | relative viability (Salubrinal + AZD7762; first compound 8 µM) | relative viability ([1]; first compound 0.04 µM) | relative viability ([1]; first compound 0.1265 µM) | relative viability ([1]; first compound 0.4 µM) | relative viability ([1]; first compound 1.265 µM) | relative viability ([1]; first compound 4 µM)
1 | NCI-H727 | 0.748 | 0.504 | 0.983 | 0.862 | 0.741 | 0.672 | 0.585 | 0.656 | 0.605 | 0.691 | 0.574 | 0.648 | 0.649 | 0.583 | 0.584 | 0.54 | 0.618 | 0.62 | 0.599 | 0.471
2 | NCI-H1355 | 1.32 | 1.15 | 1.2 | 1.32 | 1.22 | 0.423 | 0.472 | 0.412 | 0.402 | 0.364 | 0.788 | 0.711 | 0.821 | 0.691 | 0.691 | 0.783 | 0.862 | 0.819 | 0.763 | 0.797
3 | HOP-62 | 0.392 | 0.576 | 0.601 | 0.874 | 1.04 | 0.359 | 0.399 | 0.53 | 0.457 | 0.481 | 0.589 | 0.468 | 0.958 | 0.689 | 0.441 | 0.981 | 0.946 | 0.942 | 0.667 | 0.975
4 | NCI-H2085 | 1.07 | 0.877 | 1.04 | 1.03 | 1.05 | 0.457 | 0.471 | 0.484 | 0.438 | 0.427 | 1.14 | 0.905 | 0.944 | 0.946 | 0.932 | 1.01 | 0.943 | 0.961 | 1.06 | 1.11
